ChEMBL document CHEMBL5291721, “A preclinical secondary pharmacology resource illuminates target-adverse drug reaction associations of marketed drugs” (Nat Commun, 2023)

Tests used:
[1] = biological target: T1, Cholecystokinin receptor type A (Homo sapiens, UniProt P32238)
T1 sequence (P32238 whole entry): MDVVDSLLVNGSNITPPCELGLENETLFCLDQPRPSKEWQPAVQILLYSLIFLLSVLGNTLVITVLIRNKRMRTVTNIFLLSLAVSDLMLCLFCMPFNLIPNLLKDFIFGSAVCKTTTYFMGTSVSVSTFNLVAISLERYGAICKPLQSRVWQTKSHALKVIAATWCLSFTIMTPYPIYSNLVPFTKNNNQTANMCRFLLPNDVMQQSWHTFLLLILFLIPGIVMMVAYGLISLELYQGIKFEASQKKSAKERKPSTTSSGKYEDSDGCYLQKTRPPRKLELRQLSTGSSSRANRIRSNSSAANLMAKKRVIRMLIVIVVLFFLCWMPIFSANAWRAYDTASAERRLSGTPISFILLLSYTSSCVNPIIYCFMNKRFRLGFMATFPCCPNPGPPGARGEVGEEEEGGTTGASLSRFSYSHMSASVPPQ

[2] = biological target: Gamma-aminobutyric acid receptor subunit alpha-1 (Rattus norvegicus, UniProt P62813); type: functional
Chain of Gamma-aminobutyric acid receptor subunit alpha-1 (P62813 whole entry): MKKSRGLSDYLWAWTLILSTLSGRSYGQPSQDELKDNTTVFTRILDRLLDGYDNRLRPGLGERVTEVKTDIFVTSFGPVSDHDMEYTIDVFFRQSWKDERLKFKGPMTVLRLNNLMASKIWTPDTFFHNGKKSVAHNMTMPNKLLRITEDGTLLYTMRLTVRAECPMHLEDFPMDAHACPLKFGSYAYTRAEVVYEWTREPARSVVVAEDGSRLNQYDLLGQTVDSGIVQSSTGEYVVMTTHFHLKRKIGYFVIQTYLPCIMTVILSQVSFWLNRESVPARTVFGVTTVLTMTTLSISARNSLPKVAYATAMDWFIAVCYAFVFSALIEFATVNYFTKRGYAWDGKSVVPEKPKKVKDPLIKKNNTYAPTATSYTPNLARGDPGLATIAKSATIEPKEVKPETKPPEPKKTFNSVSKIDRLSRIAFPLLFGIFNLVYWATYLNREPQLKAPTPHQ

[3] = biological target: T2, Alpha-1A adrenergic receptor (Homo sapiens, UniProt P35348)
T2 sequence (P35348 whole entry): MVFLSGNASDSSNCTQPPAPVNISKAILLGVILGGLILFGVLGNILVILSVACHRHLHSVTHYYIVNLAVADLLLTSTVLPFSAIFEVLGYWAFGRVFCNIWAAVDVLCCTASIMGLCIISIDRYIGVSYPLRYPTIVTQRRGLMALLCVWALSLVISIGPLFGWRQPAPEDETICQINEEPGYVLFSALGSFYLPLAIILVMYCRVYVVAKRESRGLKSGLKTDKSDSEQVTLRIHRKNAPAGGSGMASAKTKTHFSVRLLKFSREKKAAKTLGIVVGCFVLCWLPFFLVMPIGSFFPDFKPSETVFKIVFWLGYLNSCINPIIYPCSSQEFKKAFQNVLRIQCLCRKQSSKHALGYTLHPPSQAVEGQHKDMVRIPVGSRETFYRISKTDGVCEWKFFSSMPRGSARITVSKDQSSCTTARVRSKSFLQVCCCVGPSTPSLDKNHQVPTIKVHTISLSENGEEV

[4] = biological target: T3, Androgen receptor (Rattus norvegicus, UniProt P15207); type: functional
T3 sequence (P15207 whole entry): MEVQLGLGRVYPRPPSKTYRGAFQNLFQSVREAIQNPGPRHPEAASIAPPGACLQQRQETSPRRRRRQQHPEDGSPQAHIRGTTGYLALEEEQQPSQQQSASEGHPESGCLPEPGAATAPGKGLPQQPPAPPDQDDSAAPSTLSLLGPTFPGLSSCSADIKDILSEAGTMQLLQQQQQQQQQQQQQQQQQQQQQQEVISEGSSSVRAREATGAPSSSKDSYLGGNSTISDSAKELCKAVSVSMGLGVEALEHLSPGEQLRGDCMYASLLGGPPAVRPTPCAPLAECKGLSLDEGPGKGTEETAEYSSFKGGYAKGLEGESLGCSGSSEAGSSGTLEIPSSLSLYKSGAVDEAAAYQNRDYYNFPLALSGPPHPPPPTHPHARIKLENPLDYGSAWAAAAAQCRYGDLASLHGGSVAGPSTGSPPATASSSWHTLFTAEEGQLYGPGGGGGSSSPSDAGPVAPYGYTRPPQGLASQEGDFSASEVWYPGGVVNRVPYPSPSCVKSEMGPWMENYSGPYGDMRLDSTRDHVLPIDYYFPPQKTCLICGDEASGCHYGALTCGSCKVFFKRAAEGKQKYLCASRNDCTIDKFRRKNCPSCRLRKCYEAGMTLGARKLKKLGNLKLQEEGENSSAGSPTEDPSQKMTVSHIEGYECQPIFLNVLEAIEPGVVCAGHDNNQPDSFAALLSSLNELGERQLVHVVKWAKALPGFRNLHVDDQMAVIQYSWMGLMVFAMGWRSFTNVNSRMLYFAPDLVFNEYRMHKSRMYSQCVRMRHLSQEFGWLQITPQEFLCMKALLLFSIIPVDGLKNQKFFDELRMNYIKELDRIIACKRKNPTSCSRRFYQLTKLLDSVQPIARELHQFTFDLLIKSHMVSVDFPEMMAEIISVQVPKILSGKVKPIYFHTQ

[5] = biological target: T4, Adenosine receptor A3 (Homo sapiens, UniProt P0DMS8)
T4 sequence (P0DMS8 whole entry): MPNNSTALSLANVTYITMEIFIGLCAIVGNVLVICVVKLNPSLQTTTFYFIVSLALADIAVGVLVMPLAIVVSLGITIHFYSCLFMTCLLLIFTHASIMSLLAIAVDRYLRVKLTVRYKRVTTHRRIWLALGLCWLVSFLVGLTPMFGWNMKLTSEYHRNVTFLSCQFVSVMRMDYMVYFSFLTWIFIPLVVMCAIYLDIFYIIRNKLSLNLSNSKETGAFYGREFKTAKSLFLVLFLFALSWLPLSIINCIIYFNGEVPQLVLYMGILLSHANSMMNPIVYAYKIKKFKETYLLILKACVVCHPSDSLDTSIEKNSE

[6] = biological target: T3, Androgen receptor; type: functional; remark: listed apart in the source
[7] = biological target: Beta-1 adrenergic receptor (Homo sapiens, UniProt P08588); type: functional
Chain of Beta-1 adrenergic receptor (P08588 whole entry): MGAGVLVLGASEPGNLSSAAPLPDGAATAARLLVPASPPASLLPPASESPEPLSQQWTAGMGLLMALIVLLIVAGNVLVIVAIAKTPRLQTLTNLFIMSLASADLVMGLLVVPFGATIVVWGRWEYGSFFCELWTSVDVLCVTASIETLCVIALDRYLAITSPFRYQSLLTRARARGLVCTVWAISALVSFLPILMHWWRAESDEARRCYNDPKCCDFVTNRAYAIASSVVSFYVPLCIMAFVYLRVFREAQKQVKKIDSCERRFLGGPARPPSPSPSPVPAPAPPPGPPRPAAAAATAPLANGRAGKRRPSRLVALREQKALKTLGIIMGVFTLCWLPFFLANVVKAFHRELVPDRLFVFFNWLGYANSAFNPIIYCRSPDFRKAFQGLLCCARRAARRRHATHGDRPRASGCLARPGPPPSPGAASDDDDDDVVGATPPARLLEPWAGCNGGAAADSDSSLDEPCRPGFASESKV

[8] = biological target: T5, Adenosine receptor A1 (Homo sapiens, UniProt P30542)
T5 sequence (P30542 whole entry): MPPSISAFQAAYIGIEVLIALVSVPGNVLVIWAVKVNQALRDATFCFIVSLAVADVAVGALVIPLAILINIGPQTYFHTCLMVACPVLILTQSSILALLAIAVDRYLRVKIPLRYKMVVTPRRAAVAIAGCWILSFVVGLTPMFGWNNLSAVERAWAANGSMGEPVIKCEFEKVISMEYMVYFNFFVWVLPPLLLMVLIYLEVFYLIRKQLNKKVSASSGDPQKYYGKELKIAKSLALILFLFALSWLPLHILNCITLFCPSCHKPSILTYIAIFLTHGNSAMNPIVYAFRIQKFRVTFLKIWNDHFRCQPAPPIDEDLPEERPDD

[9] = biological target: T2, Alpha-1A adrenergic receptor; type: functional, cell-based
[10] = biological target: Vasopressin V1a receptor (Homo sapiens, UniProt P37288)
Chain of Vasopressin V1a receptor (P37288 whole entry): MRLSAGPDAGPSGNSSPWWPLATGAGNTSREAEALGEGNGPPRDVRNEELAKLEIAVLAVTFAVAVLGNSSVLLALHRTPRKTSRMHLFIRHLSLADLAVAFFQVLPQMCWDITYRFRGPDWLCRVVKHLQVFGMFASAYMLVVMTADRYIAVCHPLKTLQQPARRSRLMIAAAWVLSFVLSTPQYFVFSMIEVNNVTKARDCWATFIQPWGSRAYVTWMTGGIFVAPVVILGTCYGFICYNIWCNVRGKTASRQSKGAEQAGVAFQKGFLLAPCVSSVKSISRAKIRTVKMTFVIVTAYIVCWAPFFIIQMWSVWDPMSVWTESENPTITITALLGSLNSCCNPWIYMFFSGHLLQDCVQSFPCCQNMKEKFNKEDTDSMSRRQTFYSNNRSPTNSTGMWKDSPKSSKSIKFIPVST

[11] = biological target: Mu-type opioid receptor (Homo sapiens, UniProt P35372)
Chain of Mu-type opioid receptor (P35372 whole entry): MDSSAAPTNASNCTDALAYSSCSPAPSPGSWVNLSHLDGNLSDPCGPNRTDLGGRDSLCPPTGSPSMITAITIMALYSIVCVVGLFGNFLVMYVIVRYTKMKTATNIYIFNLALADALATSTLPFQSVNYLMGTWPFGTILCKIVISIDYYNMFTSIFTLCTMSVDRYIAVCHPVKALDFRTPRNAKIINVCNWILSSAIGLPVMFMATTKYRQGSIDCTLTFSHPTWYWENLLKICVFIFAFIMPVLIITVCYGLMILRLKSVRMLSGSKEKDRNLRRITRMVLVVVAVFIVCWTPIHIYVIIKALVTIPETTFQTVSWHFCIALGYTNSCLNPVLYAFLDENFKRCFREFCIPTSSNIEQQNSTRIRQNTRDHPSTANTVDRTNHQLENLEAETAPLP

[12] = biological target: Glutamate receptor ionotropic, NMDA 1 (Rattus norvegicus, UniProt P35439)
[13] = biological target: Cannabinoid receptor 1 (Homo sapiens, UniProt P21554)
Chain of Cannabinoid receptor 1 (P21554 whole entry): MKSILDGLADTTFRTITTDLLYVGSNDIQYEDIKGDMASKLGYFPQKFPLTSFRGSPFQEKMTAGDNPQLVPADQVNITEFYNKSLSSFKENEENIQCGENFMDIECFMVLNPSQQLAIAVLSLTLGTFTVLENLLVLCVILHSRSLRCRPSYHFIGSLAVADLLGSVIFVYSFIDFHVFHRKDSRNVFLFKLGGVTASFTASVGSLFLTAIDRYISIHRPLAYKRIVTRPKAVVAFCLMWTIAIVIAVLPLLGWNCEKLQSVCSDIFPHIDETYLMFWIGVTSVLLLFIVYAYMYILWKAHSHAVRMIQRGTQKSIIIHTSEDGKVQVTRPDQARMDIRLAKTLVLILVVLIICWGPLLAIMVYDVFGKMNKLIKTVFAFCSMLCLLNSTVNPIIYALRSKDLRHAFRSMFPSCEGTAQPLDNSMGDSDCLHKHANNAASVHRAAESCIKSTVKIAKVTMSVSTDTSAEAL

[14] = biological target: Melanocortin receptor 4 (Homo sapiens, UniProt P32245)
Chain of Melanocortin receptor 4 (P32245 whole entry): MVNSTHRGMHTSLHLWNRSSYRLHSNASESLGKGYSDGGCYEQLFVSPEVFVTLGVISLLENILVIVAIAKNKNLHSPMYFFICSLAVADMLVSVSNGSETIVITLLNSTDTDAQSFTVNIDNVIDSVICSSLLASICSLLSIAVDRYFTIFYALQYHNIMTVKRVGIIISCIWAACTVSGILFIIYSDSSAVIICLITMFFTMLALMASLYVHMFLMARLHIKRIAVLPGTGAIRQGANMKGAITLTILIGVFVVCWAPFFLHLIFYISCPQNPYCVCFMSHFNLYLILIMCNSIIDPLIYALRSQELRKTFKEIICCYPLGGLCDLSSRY
Further: assay procedure not described here.

CC(=O)O[C@H]1CC[C@@]2(C)C(=CC[C@@H]3[C@@H]2CC[C@]2(C)C(c4cccnc4)=CC[C@@H]32)C1 [ABIRATERONE ACETATE]
AC50 [1]: > 30 µM | AC50 [2]: > 30 µM | AC50 [3]: > 10 µM | AC50 [4]: > 30 µM | AC50 [5]: > 30 µM | AC50 [6]: > 30 µM | AC50 [7]: > 30 µM | AC50 [8]: > 30 µM | AC50 [9]: > 30 µM | AC50 [10]: > 30 µM | AC50 [11]: > 30 µM

COc1ccccc1OCCNCC(O)c1ccc(C)c(S(N)(=O)=O)c1 (stereo unspecified) [AMOSULALOL]
AC50 [1]: > 30 µM | AC50 [2]: > 30 µM | AC50 [3]: 0.3 µM | AC50 [4]: > 30 µM | AC50 [5]: > 30 µM | AC50 [6]: > 30 µM | AC50 [7]: 0.06 µM | AC50 [8]: > 30 µM | AC50 [9]: 0.24 µM | AC50 [10]: > 30 µM | AC50 [12]: > 30 µM

Cc1cc(O)c(C(=O)N[C@@H](C(=O)N[C@@H]2C(=O)N3C(C(=O)O)=C(CSc4nnnn4C)CS[C@H]23)c2ccc(O)cc2)cn1 [CEFPIRAMIDE]
AC50 [1]: > 30 µM | AC50 [2]: > 30 µM | AC50 [3]: > 30 µM | AC50 [13]: > 30 µM | AC50 [4]: > 30 µM | AC50 [5]: > 30 µM | AC50 [6]: > 30 µM | AC50 [7]: > 30 µM | AC50 [8]: > 30 µM | AC50 [14]: > 30 µM | AC50 [10]: > 30 µM | AC50 [12]: > 30 µM

CC(Oc1c(Cl)cccc1Cl)C1=NCCN1 (stereo unspecified) [LOFEXIDINE]
AC50 [1]: > 30 µM | AC50 [2]: > 30 µM | AC50 [3]: 0.803 µM | AC50 [13]: > 30 µM | AC50 [4]: > 30 µM | AC50 [5]: > 30 µM | AC50 [6]: > 30 µM | AC50 [7]: > 30 µM | AC50 [8]: > 30 µM | AC50 [10]: > 30 µM | AC50 [12]: > 30 µM

CN1C(=O)C(O)N=C(c2ccccc2Cl)c2cc(Cl)ccc21 (stereo unspecified) [LORMETAZEPAM]
AC50 [1]: > 30 µM | AC50 [2]: 0.0014 µM | AC50 [4]: > 30 µM | AC50 [5]: > 30 µM | AC50 [6]: > 30 µM | AC50 [7]: > 30 µM | AC50 [8]: > 30 µM | AC50 [9]: > 30 µM | AC50 [10]: > 30 µM | AC50 [12]: > 30 µM

CC(C)=CCC/C(C)=C/C=C/C(C)=C/C=C/C(C)=C/C=C/C=C(C)/C=C/C=C(C)/C=C/C=C(\C)CCC=C(C)C [LYCOPENE]
AC50 [1]: > 30 µM | AC50 [2]: > 30 µM | AC50 [13]: > 30 µM | AC50 [4]: > 30 µM | AC50 [5]: > 30 µM | AC50 [6]: 24 µM | AC50 [7]: > 30 µM | AC50 [8]: > 30 µM | AC50 [9]: > 30 µM | AC50 [10]: > 30 µM | AC50 [12]: > 30 µM

COc1ccc2c3c1O[C@H]1C(=O)CC[C@@]4(O)[C@@H](C2)N(C)CC[C@]314 [OXYCODONE]
AC50 [1]: > 30 µM | AC50 [2]: > 30 µM | AC50 [4]: > 30 µM | AC50 [5]: > 30 µM | AC50 [6]: > 30 µM | AC50 [7]: > 30 µM | AC50 [8]: > 30 µM | AC50 [9]: > 30 µM | AC50 [10]: > 30 µM | AC50 [12]: > 30 µM

Clc1ccc(CCCOCCCN2CCCCC2)cc1 [PITOLISANT]
AC50 [1]: > 30 µM | AC50 [2]: > 30 µM | AC50 [4]: > 30 µM | AC50 [5]: > 30 µM | AC50 [6]: > 30 µM | AC50 [7]: > 30 µM | AC50 [8]: > 30 µM | AC50 [9]: > 30 µM | AC50 [10]: > 30 µM | AC50 [12]: > 30 µM

Cc1ccc(-n2nccn2)c(C(=O)N2CCN(c3nc4cc(Cl)ccc4o3)CC[C@H]2C)c1 [SUVOREXANT]
AC50 [1]: > 30 µM | AC50 [2]: > 30 µM | AC50 [4]: > 30 µM | AC50 [5]: > 10 µM | AC50 [6]: > 30 µM | AC50 [7]: > 30 µM | AC50 [8]: > 30 µM | AC50 [9]: > 30 µM | AC50 [10]: > 30 µM | AC50 [12]: > 30 µM

CCN(CC)C(=O)N[C@H]1C[C@@H]2c3cccc4[nH]cc(c34)C[C@H]2N(C)C1 [TERGURIDE]
AC50 [1]: > 30 µM | AC50 [2]: > 30 µM | AC50 [4]: > 30 µM | AC50 [5]: > 30 µM | AC50 [6]: > 30 µM | AC50 [7]: 3.2 µM | AC50 [8]: > 30 µM | AC50 [9]: 1.1 µM | AC50 [10]: > 30 µM | AC50 [12]: > 30 µM
